From patent US10118895B2, “ROR gamma (RORγ) modulators” (LEAD PHARMA HOLDING B.V., priority 2015, dated 2018)

The compounds below were run against T1, RORγ (Homo sapiens, UniProt P51449) (assay: RORγ GAL4 reporter gene assay (luciferase readout, 293FT cells)). Details: inhibition of RORγ (GAL4-RORγ-LBD) in transfected 293FT cells, luciferase signal, overnight incubation; read-out: mean pIC50 (converted).
T1 construct: expressed in transfected cells; host or cells: 293FT cells (Invitrogen), expression vector pFN26A (Promega)
T1 sequence (P51449 269-508 limits assumed): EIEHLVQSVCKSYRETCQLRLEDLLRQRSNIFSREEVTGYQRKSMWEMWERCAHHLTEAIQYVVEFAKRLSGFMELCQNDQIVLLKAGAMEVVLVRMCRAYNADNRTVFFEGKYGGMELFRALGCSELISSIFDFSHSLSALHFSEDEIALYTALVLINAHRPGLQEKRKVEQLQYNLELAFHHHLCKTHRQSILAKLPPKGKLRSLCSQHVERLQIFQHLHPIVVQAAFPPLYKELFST
Assay type: cell-based
Protocol: RORγ GAL4 Reporter Gene Assay
Example inhibitors 1-38 were tested for their ability to inhibit RORγ activity in a RORγ GAL4 reporter gene assay. The assay procedure and results are described below.
RORγ GAL4 Reporter Gene Assay Description
A GAL4 one-hybrid reporter system employing luciferase readout was established to determine inhibition of RORγ in 293FT cells. The RORγ ligand-binding domain (LBD) was fused to the yeast GAL4 DNA binding domain (DBD) and placed under the control of the human cytomegalovirus (CMV) immediate early promoter, using expression vector pFN26A (Promega) and standard recombinant DNA cloning methods. To serve as a control in the assay, a similar vector was generated in which the GAL4-DBD was fused to Herpes simplex virus protein 16 (VP16), a constitutive transcriptional activator.
To monitor the inhibitory effect of compounds on RORγ, a transcriptional reporter construct was used. The pGL4.35 vector (Promega) contains nine copies of the GAL4 Upstream Activator Sequence (UAS). This sequence drives the transcription of the luciferase reporter gene luc2P in response to binding of a fusion protein containing the GAL4 DNA binding domain, as for example expressed by the GAL4-RORγ-LBD and GAL4-VP16 expression vectors described above. To allow a GAL4 fusion protein to drive the expression of the luciferase reporter, the pGL4.35 expression vector and the appropriate GAL4 fusion protein expression vector were bulk transfected in the 293FT cells using standard transfection techniques.
The day after transfection, cells were plated into 96 well plates, test compound was added and the plates were incubated overnight. Subsequently, the firefly luciferase activity was quantified using luciferase detection reagent and luminescence readout.
Detailed Assay Description
293FT cells (Invitrogen) were transfected with a GAL4 fusion protein expression vector (as described above) and the transcriptional reporter construct (pGL4.35, Promega). 60 μL of TransIT-293 transfection reagent (Mirus Bio) was added drop wise to 1500 μl Opti-MEM I Reduced Serum Medium (Invitrogen) and incubated at RT (RT) for 5 to 20 minutes. 1500 μL of this reagent mixture was added to 5 μg of GAL4 fusion protein expression vector and 5 μg of the transcriptional reporter construct, and incubated at RT for 20 minutes.
To harvest 293FT cells from a T75 flask, first the culture medium was taken off the cells. Subsequently, the cells were washed with Phosphate Buffered Saline (PBS) (Lonza), after which the PBS was removed. To dissociate the cells, 1 ml of TrypLE Express (Invitrogen) was added to the flask, followed by incubation at RT until the cells visually started to detach. Cells were collected in 5 mL of assay medium (DMEM culture medium (Lonza), 10% dialyzed FBS (Invitrogen) and Pen/Strep (Lonza)) to achieve a single cell suspension. 10×10^6 cells were spun down and re-suspended in 10 mL of assay medium. Subsequently, the cell suspension was added to the transfection mix tube, and then transferred as a whole to a T75 flask (Greiner), followed by overnight (16-24 hours) incubation at 37° C. and 5% CO2.
For compound screening, the cells were harvested (as described above) and counted. 13×10^6 cells were spun down, the supernatant was aspirated and the cells were re-suspended in 17.3 mL of assay medium obtaining a cell suspension of 0.75×10^6 cells/mL. 80 μL of cell suspension (60,000 cells) was plated per well into a white, flat bottom, tissue culture treated, 96 well screening plates (Greiner).
Test compounds were diluted, starting from a 10 mM dimethylsulfoxide (DMSO) stock solution, to serial dilutions in DMSO at 500× the final test concentration. Subsequently, these solutions were diluted to 5× the final test concentration in two 10-fold-dilution steps in assay medium. The final DMSO concentration of the 5× test compound solution was 1%. […]
`O=C(Cc1cnc(S(=O)(=O)CC2CC2)nc1)Nc1ccc(C(O)(C(F)(F)F)C(F)(F)F)cc1` [Example 38, 2-[2-(cyclopropylmethylsulfonyl)pyrimidin-5-yl]-N-[4-[2,2,2-trifluoro-1-hydroxy-1-(trifluoromethyl)ethyl]phenyl]acetamide] was tested, and the IC50 was no more than 1000 nM. `O=C(Cc1ccc(S(=O)(=O)CC2CC2)nc1)Nc1ccc(C(O)(C(F)(F)F)C(F)(F)F)cn1` [Example 10, 2-[6-(cyclopropylmethylsulfonyl)-3-pyridyl]-N-[5-[2,2,2-trifluoro-1-hydroxy-1-(trifluoromethyl)ethyl]-2-pyridyl]acetamide] was tested, and the IC50 was no more than 1000 nM. `O=C(Cc1ccc(S(=O)(=O)CC2CC2)nc1)Nc1ccc(C(O)(C2CCCC2)C(F)(F)F)cc1` (stereo not shown) [Example 14, N-[4-(1-cyclopentyl-2,2,2-trifluoro-1-hydroxy-ethyl)phenyl]-2-[6-(cyclopropylmethylsulfonyl)-3-pyridyl]acetamide] showed an IC50 of no more than 1000 nM. With `CC(C)CCC(O)(c1ccc(NC(=O)Cc2ccc(S(=O)(=O)CC3CC3)nc2)cc1)C(F)(F)F` (stereo not shown) [Example 13, 2-[6-(cyclopropylmethylsulfonyl)-3-pyridyl]-N-[4-[1-hydroxy-4-methyl-1-(trifluoromethyl)pentyl]phenyl]acetamide] the IC50 was no more than 1000 nM. With `Cc1nc(S(=O)(=O)CC2CC2)ccc1CC(=O)Nc1ccc(C(O)(C(F)(F)F)C(F)(F)F)cc1` [Example 24, 2-[6-(cyclopropylmethylsulfonyl)-2-methyl-3-pyridyl]-N-[4-[2,2,2-trifluoro-1-hydroxy-1-(trifluoromethyl)ethyl]phenyl]acetamide] the IC50 was no more than 1000 nM. `O=C(Cc1ccc(S(=O)(=O)CC2CC2)nc1)Nc1ccc(C(O)(c2ccccc2)C(F)(F)F)cc1` (stereo not shown) [Example 19, 2-[6-(cyclopropylmethylsulfonyl)-3-pyridyl]-N-[4-(2,2,2-trifluoro-1-hydroxy-1-phenyl-ethyl)phenyl]acetamide] showed an IC50 of no more than 100 nM. Compound `O=C(Cc1ccc(S(=O)(=O)CC2CC2)cn1)Nc1ccc(C(O)(C2CC2)C2CC2)cc1` [Example 33, 2-[5-(cyclopropylmethylsulfonyl)-2-pyridyl]-N-[4-[dicyclopropyl(hydroxy)methyl]phenyl]acetamide] has an IC50 of no more than 1000 nM. For `O=C(Cc1ccc(S(=O)(=O)CC2CC2)cn1)Nc1ccc(C(O)(C(F)(F)F)C(F)(F)F)cc1` [Example 29, 2-[5-(cyclopropylmethylsulfonyl)-2-pyridyl]-N-[4-[2,2,2-trifluoro-1-hydroxy-1-(trifluoromethyl)ethyl]phenyl]acetamide], the IC50 was no more than 100 nM. With `O=C(Cc1ccc(S(=O)(=O)CC2CC2)nc1)Nc1ccc(C(O)(C(F)(F)F)C(F)(F)F)cc1F` [Example 8, 2-[6-(cyclopropylmethylsulfonyl)-3-pyridyl]-N-[2-fluoro-4-[2,2,2-trifluoro-1-hydroxy-1-(trifluoromethyl)ethyl]phenyl]acetamide] the IC50 was no more than 100 nM. With `Cc1cc(NC(=O)Cc2ccc(S(=O)(=O)CC3CC3)nc2)ccc1C(O)(C(F)(F)F)C(F)(F)F` [Example 3, 2-[6-(cyclopropylmethylsulfonyl)-3-pyridyl]-N-[3-methyl-4-[2,2,2-trifluoro-1-hydroxy-1-(trifluoromethyl)ethyl]phenyl]acetamide] the IC50 was no more than 100 nM. With `O=C(Cc1ccc(S(=O)(=O)CC2CC2)nc1)Nc1ccc(C(O)(CC2CCCC2)C(F)(F)F)cc1` (stereo not shown) [Example 15, N-[4-[1-(cyclopentylmethyl)-2,2,2-trifluoro-1-hydroxy-ethyl]phenyl]-2-[6-(cyclopropylmethylsulfonyl)-3-pyridyl]acetamide] the IC50 was no more than 1000 nM. In the case of `CC(C)CC(O)(c1ccc(NC(=O)Cc2ccc(S(=O)(=O)CC3CC3)nc2)cc1)C(F)(F)F` (stereo not shown) [Example 12, 2-[6-(cyclopropylmethylsulfonyl)-3-pyridyl]-N-[4-[1-hydroxy-3-methyl-1-(trifluoromethyl)butyl]phenyl]acetamide], the IC50 is reported as no more than 100 nM. For `COC(c1ccc(NC(=O)Cc2ccc(S(=O)(=O)CC3CC3)nc2)cc1)(C(F)(F)F)C(F)(F)F` [Example 2, 2-[6-(cyclopropylmethylsulfonyl)-3-pyridyl]-N-[4-[2,2,2-trifluoro-1-methoxy-1-(trifluoromethyl)ethyl]phenyl]acetamide], the IC50 was no more than 100 nM.
